Measurements published in US8481495B2 (TetraLogic Pharmaceuticals Corporation, priority 2009, dated 2013).

Legend:
[1] = tested on: SK-OV-3 cells; test: MTT cell growth inhibition assay in ovarian cancer cell line SK-OV-3; assay type: cell-based; details: Homo sapiens, 72 hrs incubation, read-out: SKOV3, nM (CC50, concentration giving 50% cell survival, as range)
Method: Compounds of the invention also were tested for their ability to inhibit the growth of an ovarian cancer cell line, SK-OV-3. A known assay previously used for measuring cell growth (as described in Hansen, M. B., Nielsen, S. E., and Berg, K. (1989) J. Immunol. Methods 119, 203-210 and incorporated herein by reference in its entirety) was used. Briefly, SK-OV-3 cells are seeded in 96-well plates in McCoy's medium containing 10% fetal bovine serum albumin (5,000 per well) and incubated overnight at 37° C. The next day, test compounds are added at various concentrations (0.003-10 μM) and the plates are incubated at 37° C. for an additional 72 hrs. This incubation time was considered to be optimal for measuring inhibitory effects of the different compounds tested. 50 microliters of 5 mg/mL MTT reagent is added to each well and the plates are incubated at 37° C. for another three (3) hours. At the end of the three (3) hour incubation period, 50 microliters of DMSO is added to each well to dissolve cells and the optical density (OD) of the wells is measured with a microplate reader (Victor^2 1420™, Wallac, Finland) at 535 nm. Cell survival (CS) was calculated using the following equation: CS=(OD treated well/mean OD control wells)×100%.
The CC50 (reported in the following tables), is defined as the drug concentration that results in 50% cell survival (CS), and is derived by calculating the point where the dose-response curve crosses the 50% CS point using GraphPad Prism® graphing software. The reported CC50 values are supplied as ranges (A=<0.1 μM, B=0.1 μM to 1 μM, C=>1 μM to 10 μM, D=>10 μM).

[2] = molecular target: T1, XIAP BIR-3 (Homo sapiens, UniProt P98170); test: Fluorescence polarization binding to XIAP BIR-3 with labeled peptide AbuRPF-K(5-Fam)-NH2; details: XIAP BIR-3, 40 nM BIR3, 5 nM labeled peptide, 15 min RT, pH 7.5; read-out: XIAP, nM (binding affinity KD, as range)
T1 construct: 40 nM of the respective IAP BIR3
T1 sequence (P98170 241-356 limits assumed): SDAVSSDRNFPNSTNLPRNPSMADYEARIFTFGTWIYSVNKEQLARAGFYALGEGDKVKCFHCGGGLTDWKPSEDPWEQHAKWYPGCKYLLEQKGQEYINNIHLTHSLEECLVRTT
Method: (§1) The binding affinities of the compounds are reported as a KD value (μM). Briefly, various concentrations of test peptides were mixed with 5 nM of the fluorescently labeled peptide (i.e., a mutated N-terminal Smac peptide-AbuRPF-K(5-Fam)-NH2) and 40 nM of the respective IAP BIR3 for 15 min at RT in […] of 0.1M Potassium Phosphate buffer, pH 7.5 containing […] bovine g-globulin. Following incubation, the polarization values (mP) were measured on a Victor2V™ (available from PerkinElmer® Life Sciences) using a 485 nm excitation filter and a 520 nm emission filter. The reported binding affinities (KD values) are supplied as ranges (A=<0.1 μM, B=0.1 μM to 1 μM, C=>1 μM to 10 μM, D=>10 μM).

[3] = molecular target: T2, cIAP-1 BIR-3 (Homo sapiens, UniProt Q13490); test: Fluorescence polarization binding to cIAP-1 BIR-3 with labeled peptide AbuRPF-K(5-Fam)-NH2; details: cIAP-1 BIR-3, 40 nM BIR3, 5 nM labeled peptide, 15 min RT, pH 7.5; read-out: cIAP1, nM (binding affinity KD, as range)
T2 construct: 40 nM of the respective IAP BIR3
T2 sequence (Q13490 253-363 limits assumed): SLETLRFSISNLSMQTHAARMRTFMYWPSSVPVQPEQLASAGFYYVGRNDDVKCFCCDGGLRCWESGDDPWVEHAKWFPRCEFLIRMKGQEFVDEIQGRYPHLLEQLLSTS
Method: as §1

| Kd [2] [nM] | Kd [3] [nM] | SMILES | CC50 [1] [nM] |
| --- | --- | --- | --- |
| 100 to 1000 | < 100 | CN[C@@H](C)C(=O)N[C@H](C(=O)N1CC[C@@H]2[C@H]1[C@@H](C(=O)Nc1ccc3ncccc3c1)CN2S(C)(=O)=O)C(C)(C)C [Example 50, 4-[3,3-Dimethyl-2-(2-methylamino-propionylamino)-butyryl]-1-methanesulfonyl-octahydro-pyrrolo[3,2-b]pyrrole-3-carboxylic acid quinolin-6-ylamide] | < 100 |
| < 100 | < 100 | CN[C@@H](C)C(=O)N[C@H](C(=O)N1CC[C@@H]2[C@H]1[C@@H](C(=O)N[C@@H](C)c1ccccc1)CN2S(C)(=O)=O)C1CCCCC1 [Example 11, 4-[2-Cyclohexyl-2-(2-methylamino-propionylamino)-acetyl]-1-methanesulfonyl-octahydro-pyrrolo[3,2-b]pyrrole-3-carboxylic acid (1-phenyl-ethyl)-amide] | 100 to 1000 |
| < 100 | < 100 | CN[C@@H](C)C(=O)N[C@H](C(=O)N1CC[C@@H]2[C@H]1[C@@H](C(=O)NCc1ccccc1)CN2C(C)=O)C(C)(C)C [Example 38, 1-Acetyl-4-[3,3-dimethyl-2-(2-methylamino-propionylamino)-butyryl]-octahydro-pyrrolo[3,2-b]pyrrole-3-carboxylic acid benzylamide] | < 100 |
| < 100 | < 100 | CN[C@@H](C)C(=O)N[C@H](C(=O)N1CC[C@@H]2[C@H]1[C@@H](C(=O)Nc1nccc3ccccc13)CN2S(C)(=O)=O)C(C)(C)C [Example 49, 4-[3,3-Dimethyl-2-(2-methylamino-propionylamino)-butyryl]-1-methanesulfonyl-octahydro-pyrrolo[3,2-b]pyrrole-3-carboxylic acid isoquinolin-1-ylamide] | < 100 |
| < 100 | < 100 | CN[C@@H](C)C(=O)N[C@H](C(=O)N1CC[C@@H]2[C@H]1[C@@H](C(=O)N[C@@H]1CCCc3ccccc31)CN2C(C)=O)C(C)(C)C [Example 34, 1-Acetyl-4-[3,3-dimethyl-2-(2-methylamino-propionylamino)-butyryl]-octahydro-pyrrolo[3,2-b]pyrrole-3-carboxylic acid (1,2,3,4-tetrahydro-naphthalen-1-yl)-amide] | < 100 |
| 1000 to 10000 | < 100 | CN[C@@H](C)C(=O)N[C@H](C(=O)N1CC[C@@H]2[C@H]1[C@@H](C(=O)N[C@@H](Cc1ccccc1)C(=O)O)CN2S(C)(=O)=O)C1CCCCC1 [Example 30, 2-({4-[2-Cyclohexyl-2-(2-methylamino-propionylamino)-acetyl]-1-methanesulfonyl-octahydro-pyrrolo[3,2-b]pyrrole-3-carbonyl}-amino)-3-phenyl-propionic acid] | 1000 to 10000 |
| < 100 | < 100 | CN[C@@H](C)C(=O)N[C@H](C(=O)N1CC[C@@H]2[C@H]1[C@@H](C(=O)Nc1cccc3ccccc13)CN2C(C)=O)C(C)(C)C [Example 37, 1-Acetyl-4-[3,3-dimethyl-2-(2-methylamino-propionylamino)-butyryl]-octahydro-pyrrolo[3,2-b]pyrrole-3-carboxylic acid naphthalen-1-ylamide] | < 100 |
| < 100 | < 100 | CN[C@@H](C)C(=O)N[C@H](C(=O)N1CC[C@@H]2[C@H]1[C@@H](C(=O)N[C@@H]1CCCc3ccccc31)CN2C(C)=O)C1CCCCC1 [Example 36, 1-Acetyl-4-[2-cyclohexyl-2-(2-methylamino-propionylamino)-acetyl]-octahydro-pyrrolo[3,2-b]pyrrole-3-carboxylic acid (1,2,3,4-tetrahydro-naphthalen-1-yl)-amide] | < 100 |
| < 100 | < 100 | CN[C@@H](C)C(=O)N[C@H](C(=O)N1CC[C@@H]2[C@H]1[C@@H](C(=O)NCc1ccc(F)cc1)CN2C(C)=O)C(C)(C)C [Example 35, 1-Acetyl-4-[3,3-dimethyl-2-(2-methylamino-propionylamino)-butyryl]-octahydro-pyrrolo[3,2-b]pyrrole-3-carboxylic acid 4-fluoro-benzylamide] | < 100 |
| < 100 | < 100 | CNC(=O)N1C[C@H](C(=O)N[C@@H]2CCCc3ccccc32)[C@@H]2[C@H]1CCN2C(=O)[C@@H](NC(=O)[C@H](C)NC)C(C)(C)C [Example 40, 4-[3,3-Dimethyl-2-(2-methylamino-propionylamino)-butyryl]-hexahydro-pyrrolo[3,2-b]pyrrole-1,3-dicarboxylic acid 1-methylamide 3-[(1,2,3,4-tetrahydro-naphthalen-1-yl)-amide]] | < 100 |
| 100 to 1000 | < 100 | CN[C@@H](C)C(=O)N[C@H](C(=O)N1CC[C@@H]2[C@H]1[C@@H](C(=O)N[C@H]1CCc3ccccc31)CN2S(C)(=O)=O)C1CCCCC1 [Example 12, 4-[2-Cyclohexyl-2-(2-methylamino-propionylamino)-acetyl]-1-methanesulfonyl-octahydro-pyrrolo[3,2-b]pyrrole-3-carboxylic acid indan-1-ylamide] | 100 to 1000 |
| < 100 | < 100 | CN[C@@H](C)C(=O)N[C@H](C(=O)N1CC[C@@H]2[C@H]1[C@@H](C(=O)Nc1cccc3ccccc13)CN2C(=O)CNC(=O)C(=O)NCC(=O)N1C[C@H](C(=O)Nc2cccc3ccccc23)[C@@H]2[C@H]1CCN2C(=O)[C@@H](NC(=O)[C@H](C)NC)C(C)(C)C)C(C)(C)C [Example 53, N,N′-Bis-{2-[4-[3,3-dimethyl-2-(2-methylamino-propionylamino)-butyryl]-3-(naphthalen-1-ylcarbamoyl)-hexahydro-pyrrolo[3,2-b]pyrrol-1-yl]-2-oxo-ethyl}-oxalamide] | < 100 |
| 100 to 1000 | < 100 | CN[C@@H](C)C(=O)N[C@H](C(=O)N1CC[C@@H]2[C@H]1[C@@H](C(=O)N[C@H](C)c1ccccc1)CN2S(C)(=O)=O)C1CCCCC1 [Example 7, 4-[2-Cyclohexyl-2-(2-methylamino-propionylamino)-acetyl]-1-methanesulfonyl-octahydro-pyrrolo[3,2-b]pyrrole-3-carboxylic acid (1-phenyl-ethyl)-amide] | 100 to 1000 |
| 100 to 1000 | < 100 | CN[C@@H](C)C(=O)N[C@H](C(=O)N1CC[C@@H]2[C@H]1[C@@H](C(=O)N[C@@H]1CCCc3ccccc31)CN2c1ncccn1)C1CCCCC1 [Example 43, 4-[2-Cyclohexyl-2-(2-methylamino-propionylamino)-acetyl]-1-pyrimidin-2-yl-octahydro-pyrrolo[3,2-b]pyrrole-3-carboxylic acid (1,2,3,4-tetrahydro-naphthalen-1-yl)-amide] | < 100 |
| < 100 | < 100 | CN[C@@H](C)C(=O)N[C@H](C(=O)N1CC[C@@H]2[C@H]1[C@@H](C(=O)N[C@H]1CCCc3ccccc31)CN2S(C)(=O)=O)C1CCCCC1 [Example 4, 4-[2-Cyclohexyl-2-(2-methylamino-propionylamino)-acetyl]-1-methanesulfonyl-octahydro-pyrrolo[3,2-b]pyrrole-3-carboxylic acid (1,2,3,4-tetrahydro-naphthalen-1-yl)-amide] | 100 to 1000 |
| 100 to 1000 | < 100 | CN[C@@H](C)C(=O)N[C@H](C(=O)N1CC[C@@H]2[C@H]1[C@@H](C(=O)Nc1cnc3ccccc3c1)CN2S(C)(=O)=O)C(C)(C)C [Example 51, 4-[3,3-Dimethyl-2-(2-methylamino-propionylamino)-butyryl]-1-methanesulfonyl-octahydro-pyrrolo[3,2-b]pyrrole-3-carboxylic acid quinolin-3-ylamide] | < 100 |
